Reference: article PMC6237161, “Synthesis, preliminarily biological evaluation and molecular docking study of new Olaparib analogues as multifunctional PARP-1 and cholinesterase inhibitors” (Journal of Enzyme Inhibition and Medicinal Chemistry, 2018)
Like-named read-outs stand apart in the source and are kept apart here.

Experiments:
[1] = system: breast cancer cell line MDA-MB-436; test: MTT assay for cell growth inhibition; format: cell-based; details: Homo sapiens, read-out: EC50 (μM) MDA-MB-436 cell inhibitory activity
Method: The anti-proliferative activities of synthesized compounds were assessed against breast cancer cell line MDA-MB-436 by the 3-(4, 5-Dimethylthiazol-2-yl)-2,5-diphenyltetrazolium bromide (MTT) assay. The MDA-MB-436 cell was purchased from Chinese Academy of Sciences. […]. After treated with compounds for 72 h, cells were incubated with 20 μL of 5 mg/mL MTT for 4 h. The culture medium was removed, and 150 μL DMSO was added to dissolve the formazan crystals. Wells containing only media were used for background correction. The optical density was measured spectrophotometrically at 490 nm. EC50 values were calculated using GraphPad Prism 6 software. Data were expressed as mean ± SEM.

[2] = target: T1, AChE from electric eel (EeAChE) (Electrophorus electricus, UniProt O42275); test: biochemical
T1 construct: purchased Sigma-Aldrich
T1 sequence (O42275 24-633): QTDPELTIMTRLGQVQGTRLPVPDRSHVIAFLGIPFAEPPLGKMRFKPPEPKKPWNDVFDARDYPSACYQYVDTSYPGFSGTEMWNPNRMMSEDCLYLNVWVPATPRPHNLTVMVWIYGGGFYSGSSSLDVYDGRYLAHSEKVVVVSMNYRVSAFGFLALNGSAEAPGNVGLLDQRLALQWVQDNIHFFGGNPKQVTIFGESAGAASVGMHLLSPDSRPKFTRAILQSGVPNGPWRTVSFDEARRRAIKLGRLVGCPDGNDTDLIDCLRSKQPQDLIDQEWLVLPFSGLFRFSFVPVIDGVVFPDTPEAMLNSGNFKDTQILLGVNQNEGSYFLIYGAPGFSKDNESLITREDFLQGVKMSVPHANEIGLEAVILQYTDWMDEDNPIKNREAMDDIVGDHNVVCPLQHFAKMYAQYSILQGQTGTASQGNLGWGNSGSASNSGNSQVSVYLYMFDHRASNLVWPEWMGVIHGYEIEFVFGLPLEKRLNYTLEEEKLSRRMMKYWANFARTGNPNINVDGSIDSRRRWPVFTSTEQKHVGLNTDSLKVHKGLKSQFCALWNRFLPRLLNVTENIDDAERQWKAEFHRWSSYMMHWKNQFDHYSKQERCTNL
Method: (§1) The test compounds were dissolved in a minimum volume of DMSO (1%) and were diluted using sodium phosphate buffer (0.1 M, pH 7.4). A reaction mixture containing 20 μL sodium phosphate buffer, 100 μL DTMB (1 mM) and 40 μL AChE (0.2 U/Ml)/BChE (0.3 U/mL) was incubated with 20 μL of various concentrations of test compounds at 37 °C for 15 min followed by the addition of the substrate (20 μL) acetylthiocholine iodide (1 mM) or S-butyrylthiocholine iodide (1 mM) and incubation for another 3 min. […] The inhibition per cent was calculated by the following expression: (1-Ai/Ac) × 100, where Ai and Ac were the absorbance obtained for AChE/BChE in the presence and absence of inhibitors, respectively. […]

[3] = target: T2, BChE from equine serum (eqBChE) (Equus caballus, UniProt P81908); test: biochemical
T2 construct: butyrylcholinesterase (eqBChE, from equine serum); purchased Sigma-Aldrich; host or cells: equine serum
T2 sequence (P81908 whole entry): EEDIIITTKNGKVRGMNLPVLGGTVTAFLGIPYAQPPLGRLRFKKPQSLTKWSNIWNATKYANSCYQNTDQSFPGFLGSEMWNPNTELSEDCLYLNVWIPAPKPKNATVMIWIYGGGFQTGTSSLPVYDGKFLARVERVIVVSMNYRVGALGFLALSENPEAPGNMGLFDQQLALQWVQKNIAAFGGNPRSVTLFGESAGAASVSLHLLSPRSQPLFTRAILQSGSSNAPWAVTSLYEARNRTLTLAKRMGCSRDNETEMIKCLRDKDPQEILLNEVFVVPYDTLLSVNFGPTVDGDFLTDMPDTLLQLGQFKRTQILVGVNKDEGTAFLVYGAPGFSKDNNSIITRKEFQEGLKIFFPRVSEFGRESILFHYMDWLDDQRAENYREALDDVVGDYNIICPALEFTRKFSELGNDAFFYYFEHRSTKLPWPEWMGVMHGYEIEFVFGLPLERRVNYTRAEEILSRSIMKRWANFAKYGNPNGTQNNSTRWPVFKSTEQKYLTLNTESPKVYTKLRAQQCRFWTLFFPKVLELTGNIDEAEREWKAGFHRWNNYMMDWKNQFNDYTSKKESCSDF
Method: as §1

[4] = target: T3, PARP-1 enzyme (Homo sapiens, UniProt P09874); test: biochemical; details: mean ± SD, n=3; for inhibition at 0.5 µM: PARP-1, measured at the conc. of 0.5 μM, read-out: Inhibition rate (%)
T3 construct: purchased Trevigen 4690–096-K
T3 sequence (P09874 whole entry): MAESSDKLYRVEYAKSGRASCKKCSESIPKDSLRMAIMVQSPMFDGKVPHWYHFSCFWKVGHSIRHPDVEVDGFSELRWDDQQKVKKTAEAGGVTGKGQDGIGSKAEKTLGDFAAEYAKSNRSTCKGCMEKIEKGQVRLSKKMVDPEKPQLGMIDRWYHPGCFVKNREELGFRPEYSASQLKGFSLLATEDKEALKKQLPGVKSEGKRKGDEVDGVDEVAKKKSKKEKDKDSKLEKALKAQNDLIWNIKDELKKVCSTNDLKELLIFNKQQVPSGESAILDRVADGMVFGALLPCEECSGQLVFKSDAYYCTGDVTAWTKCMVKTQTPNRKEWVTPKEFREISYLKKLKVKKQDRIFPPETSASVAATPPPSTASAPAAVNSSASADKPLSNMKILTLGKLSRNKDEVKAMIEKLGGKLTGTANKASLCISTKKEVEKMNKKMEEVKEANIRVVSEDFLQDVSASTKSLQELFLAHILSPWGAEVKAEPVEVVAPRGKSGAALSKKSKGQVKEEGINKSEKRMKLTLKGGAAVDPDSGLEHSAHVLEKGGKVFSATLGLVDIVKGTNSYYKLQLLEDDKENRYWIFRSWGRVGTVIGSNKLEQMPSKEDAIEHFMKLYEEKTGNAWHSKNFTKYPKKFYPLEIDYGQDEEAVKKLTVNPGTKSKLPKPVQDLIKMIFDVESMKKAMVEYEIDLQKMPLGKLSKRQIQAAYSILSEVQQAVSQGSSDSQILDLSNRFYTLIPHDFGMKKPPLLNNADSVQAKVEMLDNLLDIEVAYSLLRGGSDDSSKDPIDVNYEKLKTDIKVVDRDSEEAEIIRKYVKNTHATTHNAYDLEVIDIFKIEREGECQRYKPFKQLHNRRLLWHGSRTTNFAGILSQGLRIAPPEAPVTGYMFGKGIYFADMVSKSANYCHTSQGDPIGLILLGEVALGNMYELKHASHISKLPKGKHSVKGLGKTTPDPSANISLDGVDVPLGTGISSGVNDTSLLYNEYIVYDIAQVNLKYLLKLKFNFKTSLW
Method: Olaparib was used as positive control. […] Then, the standard curve was drawn and the inhibition rate of each test compound was calculated.

[5] = MDA-MB-436, MTT, incubated for 72 h, mean ± SD, n=3, concentration required to reduce cell proliferation by 50%
[6] = AChE from electric eel, mean ± SD, n=3, read-out: IC50 (μM) AChE
[7] = BChE from equine serum, mean ± SD, n=3, read-out: IC50 (μM) BChE

COc1ccccc1/C=C/C(=O)N1CCN(C(=O)c2cc(Cc3n[nH]c(=O)c4ccccc34)ccc2F)CC1 [5e, (E)-4-{[3-[4-(3-(2-methoxyphenyl)acryloyl)piperazine-1-carbonyl]-4-fluorophenyl]methyl}-2H-phthalazin-1-one]
EC50 [1, 5]: 44.2 ± 1.95 µM | IC50 [2, 6]: 56.9 ± 4.3 µM | IC50 [3, 7]: 26.4 ± 1.93 µM | inhibition at 0.5 µM [4]: 62.6 ± 3.65%

O=C(/C=C/c1ccc(C(F)(F)F)cc1)N1CCN(C(=O)c2cc(Cc3n[nH]c(=O)c4ccccc34)ccc2F)CC1 [5h, (E)-4-{[3-[4–(3-(4-trifluoromethylphenyl)acryloyl)piperazine-1-carbonyl]-4-fluorophenyl]methyl} -2H -phthalazin-1-one]
EC50 [1, 5]: 14.8 ± 1.42 µM | IC50 [2, 6]: 136 ± 12.5 µM | IC50 [3, 7]: 56.8 ± 4.36 µM | inhibition at 0.5 µM [4]: 89.5 ± 12.6% | IC50 [4]: 295 ± 8.25 nM

O=C(/C=C/c1ccccc1)N1CCN(C(=O)c2cc(Cc3n[nH]c(=O)c4ccccc34)ccc2F)CC1 [5a, (E)-4-{[3-[4-(3-phenylacryloyl)piperazine-1-carbonyl]-4-fluorophenyl]methyl}-2H-phthalazin-1-one]
EC50 [1, 5]: 38.2 ± 2.15 µM | IC50 [2, 6]: 52.9 ± 3.02 µM | IC50 [3, 7]: 22.4 ± 1.19 µM | inhibition at 0.5 µM [4]: 75.2 ± 4.84%

O=C(/C=C/c1cccc(F)c1)N1CCN(C(=O)c2cc(Cc3n[nH]c(=O)c4ccccc34)ccc2F)CC1 [5i, (E)-4-{[3-[4–(3-(3-fluorophenyl)acryloyl)piperazine-1-carbonyl]-4-fluorophenyl]methyl} -2H -phthalazin-1-one]
EC50 [1, 5]: 14.2 ± 5.21 µM | IC50 [2, 6]: 110 ± 9.18 µM | IC50 [3, 7]: 33.4 ± 4.14 µM | inhibition at 0.5 µM [4]: 88.2 ± 5.24% | IC50 [4]: 267 ± 9.32 nM

COc1cc(/C=C/C(=O)N2CCN(C(=O)c3cc(Cc4n[nH]c(=O)c5ccccc45)ccc3F)CC2)cc(OC)c1OC [5n, (E)-4-{[3-[4–(3-(3,4,5-trimethoxyphenyl)acryloyl)piperazine-1-carbonyl]-4-fluorophenyl]methyl} -2H -phthalazin-1-one]
EC50 [1, 5]: 31.2 ± 4.12 µM | IC50 [2, 6]: 99.1 ± 2.21 µM | IC50 [3, 7]: 65.2 ± 1.08 µM | inhibition at 0.5 µM [4]: 66 ± 4.82%

O=C(/C=C/c1ccc([N+](=O)[O-])cc1)N1CCN(C(=O)c2cc(Cc3n[nH]c(=O)c4ccccc34)ccc2F)CC1 [5m, (E)-4-{[3-[4–(3-(4-nitrophenyl)acryloyl)piperazine-1-carbonyl]-4-fluorophenyl]methyl} -2H -phthalazin-1-one]
EC50 [1, 5]: 14 ± 1.28 µM | IC50 [2, 6]: 12.2 ± 0.49 µM | IC50 [3, 7]: 5.93 ± 0.19 µM | inhibition at 0.5 µM [4]: 93.2 ± 5.28% | IC50 [4]: 37.9 ± 1.89 nM

O=C(/C=C/c1ccc(Cl)cc1)N1CCN(C(=O)c2cc(Cc3n[nH]c(=O)c4ccccc34)ccc2F)CC1 [5j, (E)-4-{[3-[4–(3-(4-chlorophenyl)acryloyl)piperazine-1-carbonyl]-4-fluorophenyl]methyl} -2H -phthalazin-1-one]
EC50 [1, 5]: 45.2 ± 1.68 µM | IC50 [2, 6]: 86.5 ± 5.12 µM | IC50 [3, 7]: 37.1 ± 2.37 µM | inhibition at 0.5 µM [4]: 75.5 ± 4.54%

O=C(/C=C/c1ccc(F)cc1)N1CCN(C(=O)c2cc(Cc3n[nH]c(=O)c4ccccc34)ccc2F)CC1 [5g, (E)-4-{[3-[4–(3-(4-fluorophenyl)acryloyl)piperazine-1-carbonyl]-4-fluorophenyl]methyl} -2H -phthalazin-1-one]
EC50 [1, 5]: 13 ± 2.14 µM | IC50 [2, 6]: 173 ± 30 µM | IC50 [3, 7]: 105 ± 12.5 µM | inhibition at 0.5 µM [4]: 85.6 ± 3.69% | IC50 [4]: 397 ± 7.01 nM

Cc1ccc(/C=C/C(=O)N2CCN(C(=O)c3cc(Cc4n[nH]c(=O)c5ccccc45)ccc3F)CC2)cc1 [5d, (E)-4-{[3-[4-(3-(4-methylphenyl)acryloyl)piperazine-1-carbonyl]-4-fluorophenyl]methyl} -2H-phthalazin-1-one]
EC50 [1, 5]: 35.1 ± 3.42 µM | IC50 [2, 6]: 72 ± 3.84 µM | IC50 [3, 7]: 27.8 ± 0.87 µM | inhibition at 0.5 µM [4]: 64.2 ± 4.59%

O=C(/C=C/c1cccc([N+](=O)[O-])c1)N1CCN(C(=O)c2cc(Cc3n[nH]c(=O)c4ccccc34)ccc2F)CC1 [5l, (E)-4-{[3-[4–(3-(3-nitrophenyl)acryloyl)piperazine-1-carbonyl]-4-fluorophenyl]methyl} -2H -phthalazin-1-one]
EC50 [1, 5]: 11.6 ± 2.15 µM | IC50 [2, 6]: 24.6 ± 1.1 µM | IC50 [3, 7]: 9.16 ± 0.91 µM | inhibition at 0.5 µM [4]: 95.7 ± 4.35% | IC50 [4]: 16.1 ± 1.25 nM

O=C(/C=C/c1ccc(Br)cc1)N1CCN(C(=O)c2cc(Cc3n[nH]c(=O)c4ccccc34)ccc2F)CC1 [5k, (E)-4-{[3-[4–(3-(4-bromophenyl)acryloyl)piperazine-1-carbonyl]-4-fluorophenyl]methyl} -2H -phthalazin-1-one]
EC50 [1, 5]: 112 ± 5.24 µM | IC50 [2, 6]: 80.7 ± 4.87 µM | IC50 [3, 7]: 45.8 ± 3.76 µM | inhibition at 0.5 µM [4]: 43.2 ± 6.54%

O=C(c1cc(Cc2n[nH]c(=O)c3ccccc23)ccc1F)N1CCN(C(=O)C2CC2)CC1 [Olaparib]
EC50 ([1]; MDA-MB-436, 72 h): 8.63 ± 1.25 µM | IC50 [2, 6]: 50.95 ± 0.46 µM | IC50 [3, 7]: 34.4 ± 0.64 µM

COc1ccc(/C=C/C(=O)N2CCN(C(=O)c3cc(Cc4n[nH]c(=O)c5ccccc45)ccc3F)CC2)cc1 [5c, (E)-4-{[3-[4–(3-(4-methoxyphenyl)acryloyl)piperazine-1-carbonyl]-4-fluorophenyl]methyl} -2H-phthalazin-1-one]
EC50 [1, 5]: 14.2 ± 3.16 µM | IC50 [2, 6]: 55.8 ± 0.6 µM | IC50 [3, 7]: 179 ± 5.89 µM | inhibition at 0.5 µM [4]: 89.2 ± 10.6% | IC50 [4]: 144 ± 5.26 nM

CN(C)C(=O)Oc1cccc([N+](C)(C)C)c1 [Neostigmine, reference compound]
IC50 [2]: 0.04 ± 0.01 µM | IC50 [3]: 12 ± 0.45 µM

COc1ccc(OC)c(/C=C/C(=O)N2CCN(C(=O)c3cc(Cc4n[nH]c(=O)c5ccccc45)ccc3F)CC2)c1 [5f, (E)-4-{[3-[4–(3-(2,5-dimethoxyphenyl)acryloyl)piperazine-1-carbonyl]-4-fluorophenyl]methyl} -2H-phthalazin-1-one]
EC50 [1, 5]: 30.2 ± 3.25 µM | IC50 [2, 6]: 76.9 ± 4.13 µM | IC50 [3, 7]: 35.7 ± 2.98 µM | inhibition at 0.5 µM [4]: 75.6 ± 3.61%

O=C(/C=C/c1ccco1)N1CCN(C(=O)c2cc(Cc3n[nH]c(=O)c4ccccc34)ccc2F)CC1 [5o, (E)-4-{[3-[4-(3-(furan-2-yl)acryloyl)piperazine-1-carbonyl]-4-fluorophenyl]methyl} -2H -phthalazin-1-one]
EC50 [1, 5]: 32.2 ± 3.58 µM | IC50 [2, 6]: 114 ± 14.9 µM | IC50 [3, 7]: 77.6 ± 9.06 µM | inhibition at 0.5 µM [4]: 65.2 ± 5.98%

COc1ccc(/C=C/C(=O)N2CCN(C(=O)c3cc(Cc4n[nH]c(=O)c5ccccc45)ccc3F)CC2)cc1OC [5b, (E)-4-{[3-[4–(3-(3,4-dimethoxyphenyl)acryloyl)piperazine-1-carbonyl]-4-fluorophenyl]methyl}-2H-phthalazin-1-one]
EC50 [1, 5]: 41.2 ± 1.95 µM | IC50 [2, 6]: 45.2 ± 1.38 µM | IC50 [3, 7]: 17.8 ± 0.72 µM | inhibition at 0.5 µM [4]: 77.2 ± 3.89%
